{"source": "ChEMBL document CHEMBL4613212", "about": "“Insights of synthetic analogues of anti-leprosy agents” (Bioorg Med Chem, 2019)", "format_in_all_cases": "functional", "key": {"Mycobacterium leprae [1]": {"tested_on": "Mycobacterium leprae", "test": "Anti-leprotic activity against Mycobacterium leprae primary cultures at 4 weeks assessed as ATP level per 10^7 cells at 0.5 mg/L measured by bioluminescence assay (reference value: 314 +/- 46 pg)"}, "Mycobacterium leprae [2]": {"tested_on": "Mycobacterium leprae", "test": "Anti-leprotic activity against Mycobacterium leprae primary cultures at 4 weeks assessed as ATP level per 10^7 cells at 1.0 mg/L measured by bioluminescence assay (reference value: 314 +/- 46 pg)"}, "Mycobacterium leprae [3]": {"tested_on": "Mycobacterium leprae", "test": "Anti-leprotic activity against Mycobacterium leprae primary cultures at 4 weeks assessed as ATP level per 10^7 cells at 5.0 mg/L measured by bioluminescence assay (reference value: 314 +/- 46 pg)"}, "Mycobacterium leprae [4]": {"tested_on": "Mycobacterium leprae", "test": "Anti-leprotic activity against Mycobacterium leprae primary cultures at 4 weeks assessed as ATP level per 10^7 cells at 10.0 mg/L measured by bioluminescence assay (reference value: 314 +/- 46 pg)"}, "Mycobacterium leprae [5]": {"tested_on": "Mycobacterium leprae", "test": "Anti-leprotic activity against Mycobacterium leprae primary cultures at 4 weeks assessed as ATP level per 10^7 cells at 15.0 mg/L measured by bioluminescence assay (reference value: 314 +/- 46 pg)"}, "Mycobacterium leprae [6]": {"tested_on": "Mycobacterium leprae", "test": "Anti-leprotic activity against Mycobacterium leprae primary cultures at 4 weeks assessed as ATP level per 10^7 cells at 20.0 mg/L measured by bioluminescence assay (reference value: 314 +/- 46 pg)"}, "Mycobacterium leprae [7]": {"tested_on": "Mycobacterium leprae", "test": "Anti-leprotic activity against Mycobacterium leprae primary cultures at 4 weeks assessed as [3H]thymidine uptake per 5 times 10^7 cells at 0.5 mg/L (reference value: 0.95 +/- 0.01 pmol)"}, "Mycobacterium leprae [8]": {"tested_on": "Mycobacterium leprae", "test": "Anti-leprotic activity against Mycobacterium leprae primary cultures at 4 weeks assessed as [3H]thymidine uptake per 5 times 10^7 cells at 1.0 mg/L (reference value: 0.95 +/- 0.01 pmol)"}, "Mycobacterium leprae [9]": {"tested_on": "Mycobacterium leprae", "test": "Anti-leprotic activity against Mycobacterium leprae primary cultures at 4 weeks assessed as [3H]thymidine uptake per 5 times 10^7 cells at 5.0 mg/L (reference value: 0.95 +/- 0.01 pmol)"}, "Mycobacterium leprae [10]": {"tested_on": "Mycobacterium leprae", "test": "Anti-leprotic activity against Mycobacterium leprae primary cultures at 4 weeks assessed as [3H]thymidine uptake per 5 times 10^7 cells at 10.0 mg/L (reference value: 0.95 +/- 0.01 pmol)"}, "Mycobacterium leprae [11]": {"tested_on": "Mycobacterium leprae", "test": "Anti-leprotic activity against Mycobacterium leprae primary cultures at 4 weeks assessed as [3H]thymidine uptake per 5 times 10^7 cells at 15.0 mg/L (reference value: 0.95 +/- 0.01 pmol)"}, "Mycobacterium leprae [12]": {"tested_on": "Mycobacterium leprae", "test": "Anti-leprotic activity against Mycobacterium leprae primary cultures at 4 weeks assessed as [3H]thymidine uptake per 5 times 10^7 cells at 20.0 mg/L (reference value: 0.95 +/- 0.01 pmol)"}, "Mycobacterium leprae [13]": {"tested_on": "Mycobacterium leprae", "test": "Anti-leprotic activity against Mycobacterium leprae subcultures at 4 weeks assessed as ATP level per 10^7 cells at 0.5 mg/L measured by bioluminescence assay (reference value: 462 +/- 64 pg)"}, "Mycobacterium leprae [14]": {"tested_on": "Mycobacterium leprae", "test": "Anti-leprotic activity against Mycobacterium leprae subcultures at 4 weeks assessed as ATP level per 10^7 cells at 1.0 mg/L measured by bioluminescence assay (reference value: 462 +/- 64 pg)"}, "Mycobacterium leprae [15]": {"tested_on": "Mycobacterium leprae", "test": "Anti-leprotic activity against Mycobacterium leprae subcultures at 4 weeks assessed as ATP level per 10^7 cells at 5.0 mg/L measured by bioluminescence assay (reference value: 462 +/- 64 pg)"}, "Mycobacterium leprae [16]": {"tested_on": "Mycobacterium leprae", "test": "Anti-leprotic activity against Mycobacterium leprae subcultures at 4 weeks assessed as ATP level per 10^7 cells at 10.0 mg/L measured by bioluminescence assay (reference value: 462 +/- 64 pg)"}, "Mycobacterium leprae [17]": {"tested_on": "Mycobacterium leprae", "test": "Anti-leprotic activity against Mycobacterium leprae subcultures at 4 weeks assessed as ATP level per 10^7 cells at 15.0 mg/L measured by bioluminescence assay (reference value: 462 +/- 64 pg)"}, "Mycobacterium leprae [18]": {"tested_on": "Mycobacterium leprae", "test": "Anti-leprotic activity against Mycobacterium leprae subcultures at 4 weeks assessed as ATP level per 10^7 cells at 20.0 mg/L measured by bioluminescence assay (reference value: 462 +/- 64 pg)"}, "Mycobacterium leprae [19]": {"tested_on": "Mycobacterium leprae", "test": "Anti-leprotic activity against Mycobacterium leprae subcultures at 4 weeks assessed as [3H]thymidine uptake per 5 times 10^7 cells at 0.5 mg/L (reference value: 1.28 +/- 0.14 pmol)"}, "Mycobacterium leprae [20]": {"tested_on": "Mycobacterium leprae", "test": "Anti-leprotic activity against Mycobacterium leprae subcultures at 4 weeks assessed as [3H]thymidine uptake per 5 times 10^7 cells at 1.0 mg/L (reference value: 1.28 +/- 0.14 pmol)"}, "Mycobacterium leprae [21]": {"tested_on": "Mycobacterium leprae", "test": "Anti-leprotic activity against Mycobacterium leprae subcultures at 4 weeks assessed as [3H]thymidine uptake per 5 times 10^7 cells at 5.0 mg/L (reference value: 1.28 +/- 0.14 pmol)"}, "Mycobacterium leprae [22]": {"tested_on": "Mycobacterium leprae", "test": "Anti-leprotic activity against Mycobacterium leprae subcultures at 4 weeks assessed as [3H]thymidine uptake per 5 times 10^7 cells at 10.0 mg/L (reference value: 1.28 +/- 0.14 pmol)"}, "Mycobacterium leprae [23]": {"tested_on": "Mycobacterium leprae", "test": "Anti-leprotic activity against Mycobacterium leprae subcultures at 4 weeks assessed as [3H]thymidine uptake per 5 times 10^7 cells at 15.0 mg/L (reference value: 1.28 +/- 0.14 pmol)"}, "Mycobacterium leprae [24]": {"tested_on": "Mycobacterium leprae", "test": "Anti-leprotic activity against Mycobacterium leprae subcultures at 4 weeks assessed as [3H]thymidine uptake per 5 times 10^7 cells at 20.0 mg/L (reference value: 1.28 +/- 0.14 pmol)"}, "Mycobacterium leprae [25]": {"tested_on": "Mycobacterium leprae", "test": "Antimicrobial activity against Mycobacterium leprae"}, "[26]": {"tested_on": "Mycobacterium tuberculosis", "test": "Antimycobacterial activity against Mycobacterium tuberculosis H37Rv infected in CF-1 mouse assessed as change in survival time at 42 mg/kg administrated daily for 14 days with food relative to control"}, "[27]": {"tested_on": "Mycobacterium tuberculosis", "test": "Antimycobacterial activity against Mycobacterium tuberculosis H37Rv infected in CF-1 mouse assessed as change in survival time at 24 mg/kg administrated daily for 14 days with food relative to control"}, "[28]": {"tested_on": "Mycobacterium tuberculosis", "test": "Antimycobacterial activity against Mycobacterium tuberculosis H37Rv infected in CF-1 mouse assessed as change in survival time at 8 mg/kg administrated daily for 14 days with food relative to control"}, "[29]": {"tested_on": "Mycobacterium tuberculosis", "test": "Antimycobacterial activity against Mycobacterium tuberculosis H37Rv infected in CF-1 mouse assessed as change in survival time at 4 mg/kg administrated daily for 14 days with food relative to control"}, "[30]": {"tested_on": "Mycobacterium tuberculosis", "test": "Antimycobacterial activity against Mycobacterium tuberculosis H37Rv infected in CF-1 mouse assessed as change in survival time at 5 mg/kg administrated daily for 14 days with food relative to control"}, "[31]": {"tested_on": "Mycobacterium tuberculosis", "test": "Antimycobacterial activity against Mycobacterium tuberculosis H37Rv infected in CF-1 mouse assessed as change in survival time at 3 mg/kg administrated daily for 14 days with food relative to control"}, "[32]": {"tested_on": "Mycobacterium tuberculosis", "test": "Antimycobacterial activity against Mycobacterium tuberculosis H37Rv infected in CF-1 mouse assessed as change in survival time at 12 mg/kg administrated daily for 14 days with food relative to control"}}, "data": [{"smiles": "CCOc1cc(Cc2cnc(N)nc2N)cc(OCC)c1-n1cccc1", "note": "[EPIROPRIM]", "values": [{"measurement": "Activity", "setting": "Mycobacterium leprae [1]", "value": 325, "unit": "pg"}, {"measurement": "Activity", "setting": "Mycobacterium leprae [2]", "value": 331, "unit": "pg"}, {"measurement": "Activity", "setting": "Mycobacterium leprae [3]", "value": 283, "unit": "pg"}, {"measurement": "Activity", "setting": "Mycobacterium leprae [4]", "value": 0, "unit": "pg"}, {"measurement": "Activity", "setting": "Mycobacterium leprae [5]", "value": 0, "unit": "pg"}, {"measurement": "Activity", "setting": "Mycobacterium leprae [6]", "value": 0, "unit": "pg"}, {"measurement": "Activity", "setting": "Mycobacterium leprae [7]", "value": 1.12, "unit": "pmol"}, {"measurement": "Activity", "setting": "Mycobacterium leprae [8]", "value": 1.44, "unit": "pmol"}, {"measurement": "Activity", "setting": "Mycobacterium leprae [9]", "value": 0.73, "unit": "pmol"}, {"measurement": "Activity", "setting": "Mycobacterium leprae [10]", "value": 0, "unit": "pmol"}, {"measurement": "Activity", "setting": "Mycobacterium leprae [11]", "value": 0, "unit": "pmol"}, {"measurement": "Activity", "setting": "Mycobacterium leprae [12]", "value": 0, "unit": "pmol"}, {"measurement": "Activity", "setting": "Mycobacterium leprae [13]", "value": 0.82, "unit": "pg"}, {"measurement": "Activity", "setting": "Mycobacterium leprae [14]", "value": 0.95, "unit": "pg"}, {"measurement": "Activity", "setting": "Mycobacterium leprae [15]", "value": 317, "unit": "pg"}, {"measurement": "Activity", "setting": "Mycobacterium leprae [16]", "value": 0, "unit": "pg"}, {"measurement": "Activity", "setting": "Mycobacterium leprae [17]", "value": 0, "unit": "pg"}, {"measurement": "Activity", "setting": "Mycobacterium leprae [18]", "value": 0, "unit": "pg"}, {"measurement": "Activity", "setting": "Mycobacterium leprae [19]", "value": 0.413, "unit": "pmol"}, {"measurement": "Activity", "setting": "Mycobacterium leprae [20]", "value": 0.45, "unit": "pmol"}, {"measurement": "Activity", "setting": "Mycobacterium leprae [21]", "value": 0.88, "unit": "pmol"}, {"measurement": "Activity", "setting": "Mycobacterium leprae [22]", "value": 0, "unit": "pmol"}, {"measurement": "Activity", "setting": "Mycobacterium leprae [23]", "value": 0, "unit": "pmol"}, {"measurement": "Activity", "setting": "Mycobacterium leprae [24]", "value": 0, "unit": "pmol"}, {"measurement": "MIC", "setting": "Mycobacterium leprae [25]", "value": 10, "unit": "µg/mL"}]}, {"smiles": "COc1ccc(/N=N/c2ccc(NCCCN3CCCCC3)c3c2CCCC3)cc1", "values": [{"measurement": "MST", "setting": "[26]", "value": 50, "unit": "days"}, {"measurement": "MST", "setting": "[27]", "value": 26, "unit": "days"}, {"measurement": "MST", "setting": "[28]", "value": 13, "unit": "days"}, {"measurement": "MST", "setting": "[29]", "value": 11, "unit": "days"}]}, {"smiles": "COc1ccc(/N=N/c2ccc(NCCCN3CCCCC3)c3c2CCCC3)cn1", "values": [{"measurement": "MST", "setting": "[30]", "value": 13, "unit": "days"}, {"measurement": "MST", "setting": "[31]", "value": 10, "unit": "days"}, {"measurement": "MST", "setting": "[27]", "value": 46, "unit": "days"}, {"measurement": "MST", "setting": "[32]", "value": 31, "unit": "days"}]}]}
